From article PMC9256669, “Monomethyl auristatin antibody and peptide drug conjugates for trimodal cancer chemo-radio-immunotherapy” (Nature Communications, 2022) come the findings set out here.

Several values for one entry are separate records, joined by “and”; a condition that tells them apart may be missing. Equal entries are not always repeated. Where two headings read alike, the source gives them in different places. Non-standard residues stand in square brackets, D forms with d. Residues, ends and D or L forms follow the SMILES beside them. *: point of attachment. Dolaproine = CO[C@@H]([C@@H]1CCCN1)[C@@H](C)C(=O)O; Dil = CC[C@H](C)[C@H](NC)[C@@H](CC(=O)O)OC; X1 = C[C@@H](N*)[C@@H](O)c1ccccc1; NMeV = CN[C@H](C(=O)O)C(C)C

One experiment relates to MOC2. The experiment is described as follows: Cytotoxicity, Alamar Blue assay. In kind it is cell-based, murine. The note with it: MOC2, 72 h drug exposure, one value per biological replicate, read-out: IC50 values. The method, then: Murine colorectal (MC38 (ENH204-FP)) cancer cell lines were obtained from Kerafast. Murine head and neck MOC1 and MOC2 were generously provided by Dr. R. Uppaluri. CAL27 PIK3CA H1047R expressing cells and 4MOSC1 cells were generated in Dr. Gutkind’s laboratory and previously characterized[42],[55]. […] MC38 cells were cultured in DMEM supplemented with 10% FBS, 1 mM sodium pyruvate (Gibco), 1% non-essential amino acids (Gibco), and 10 mM HEPES (Gibco). MOC1 and MOC2 cells were cultured in IMDM (Lonza)/F-12K nutrient mixture at a 2:1 mixture with 5% FBS, 5 ng/ml EGF (EMD Millipore), 400 ng/ml hydrocortisone (Sigma), and […] insulin (Sigma). On receipt, each cell line was expanded, cryopreserved as low passage stocks, and routinely tested for mycoplasma. Cisplatin (Enzo Biosciences), paclitaxel (Sigma), and MMAE (Concortis) were reconstituted in DMSO. […] Clinical grade cetuximab (Erbitux, Lilly Medical) was obtained from UCSD Moores Cancer Center Pharmacy.
(§1) Cells were plated in 96-well plates and exposed to a drug concentration range for 72 h. Alamar Blue was added to the cells and allowed to incubate for 2–4 h at 37 °C. Plates were analyzed using a plate reader with fluorescence measured at 560 nm. Fractional survival was normalized to untreated control cell fluorescent values. Drug IC50 was calculated using Prism software (GraphPad, La Jolla, CA). Cell viability, cytotoxicity and apoptosis were also measured by ApoTox-Glo Triplex Assay (Promega).
measured by Alamar Blue assay. For Alamar Blue assay cytotoxicity, we measured cell viability at 72 hr of […]

The subject of the next experiment is CAL27. As to the kind of experiment: Cytotoxicity, Alamar Blue assay. The format is cell-based, human. The note with it: 72 h drug exposure, one value per biological replicate, read-out: IC50 values. The method, then: (§2) Murine colorectal (MC38 (ENH204-FP)) cancer cell lines were obtained from Kerafast. Murine head and neck MOC1 and MOC2 were generously provided by Dr. R. Uppaluri. CAL27 PIK3CA H1047R expressing cells and 4MOSC1 cells were generated in Dr. Gutkind’s laboratory and previously characterized[42],[55]. […] MC38 cells were cultured in DMEM supplemented with 10% FBS, 1 mM sodium pyruvate (Gibco), 1% non-essential amino acids (Gibco), and 10 mM HEPES (Gibco). MOC1 and MOC2 cells were cultured in IMDM (Lonza)/F-12K nutrient mixture at a 2:1 mixture with 5% FBS, 5 ng/ml EGF (EMD Millipore), 400 ng/ml hydrocortisone (Sigma), and […] insulin (Sigma). On receipt, each cell line was expanded, cryopreserved as low passage stocks, and routinely tested for mycoplasma. Cisplatin (Enzo Biosciences), paclitaxel (Sigma), and MMAE (Concortis) were reconstituted in DMSO. Clinical-grade CDX3379 was provided by Celldex. Clinical grade cetuximab (Erbitux, Lilly Medical) was obtained from UCSD Moores Cancer Center Pharmacy.
as §1

In a further experiment the test system is Detroit 562. As to the kind of experiment: Cytotoxicity, Alamar Blue assay. The format is cell-based, human. The note with it: Detroit 562, 72 h drug exposure, one value per biological replicate, read-out: IC50 values. As to the method: as §2, §1
The subject of another experiment is B16 cells. The experiment is described as follows: Cell surface binding of Cy5-labeled ADCs by flow cytometry. In kind it is cell-based, murine.
The next experiment concerns B16 tumors. The note with it: status at the day printed in the same line, one line per mouse.
The test system of a further experiment is MOC2 tumors. The experiment is described as follows: Orthotopic syngeneic tongue tumor therapy, tumor volumes. To be noted: single 2.5 nmole i.v. injection. In kind it is in vivo, C57BL/6 mice. The source says: Orthotopic tongue xenograft tumors were established in 6-week-old NOD SCID mice by injecting 150,000 CAL27 parental (WT) or PIK3CA H1047R-expressing cells. […] On the last day of tumor xenograft measurements, mice were euthanized, tongues resected, imaged, and fixed. […] IR was delivered as 2 parallel opposed fields.
6-week-old C57BL/6 female mice were implanted with 50,000 MOC2 cells into the tongue. […] Five days after treatment, tumors were isolated, minced, and re-suspended in FBS-free DMEM media supplemented with components of MACs tumor dissociation kit. Tissues were incubated for 15 min at 37 °C and mechanically digested using the gentle MACs Octo Dissociator. Digested samples were then passed through a 100-µm strainer to acquire a single-cell. For viability staining, cells were washed in PBS and stained with Cell-ID Cisplatin (DVS Sciences) to a final concentration of 5 μM for 5 min at room temperature. Cisplatin was quenched when cells were washed and stained with the antibody cocktail. Antibodies were prepared in Maxpar cell staining buffer (PBS with 2 mM EDTA, 0.1% BSA, 0.05% NaN3) and incubated with cells for 15 min at room temperature. […] Antibodies (clone in parenthesis) used for CyTOF included B220 (RA3-6B2), CD117(2B8), CD11c (N418), CD25 (3C7), CD4 (RM4-5), CD45 (30-F11), CD8a (53-6.7), MHC-II (M5/114.15.2), NKP46 (29A1.4), TCRb (H57-597) from Fluidigm. […]

Method for B16 cells: Murine cancer cells incubated on ice with Cy5 labeled ADC, bound Cy5 signal measured
by flow cytometry. Mean fluorescent intensity measured and subtracted from baseline fluorescence of saline incubated cells for each cell line. Data representative of 3
Method for B16 tumors: MOC1, B16, LL/2, and MC38 tumor cells were injected subcutaneously into the hindlimbs of 6-week-old female C57BL/6 albino mice in 100 µl of 1:1 Matrigel (BD) and PBS solution. Fractionated IR was delivered focally to the tumor-bearing hindlimbs (3 Gy to MC38 tumors and 5 Gy to LL/2 and B16 tumors) as indicated in figure legends using a PXI X-RAD 225 XL irradiator at maximal dose rate of 3 Gy/min with a beam-conditioning aluminum filter (Precision X-ray Irradiation). For RAG1 KO studies, 6-week-old female Rag1^tm1Mom mice were injected subcutaneously with tumor cells in their hindlimbs (Jackson Labs). For CD8 depletion studies, mice were i.p. injected with anti-CD8 (BioXCell #BE0117) at 10 mg/kg on days −6, −5 and −4 tumor cell implant and then weekly starting on day after tumor cells were injected or control antibody. […] Tumor volumes were measured and calculated using the formula as ½ * length * width^2. Mice were sacrificed when tumor volume reached >1500 mm^3, maximal tumor volume approved on our protocol for subcutaneous tumors.

For `CC[C@H](C)[C@@H]([C@@H](CC(=O)N1CCC[C@H]1[C@H](OC)[C@@H](C)C(=O)N[C@H](C)[C@@H](O)c1ccccc1)OC)N(C)C(=O)[C@@H](NC(=O)[C@@H](NC)C(C)C)C(C)C` [MMAE, monomethyl auristatin E] (H-[NMeV]V[Dil][Dolaproine]-X1), the IC50 with MOC2 is 9.29 nM and 11.1 nM; in the experiment with CAL27, 0.235 nM and 0.239 nM (2×) and 0.237 nM and 0.177 nM and 0.185 nM; in the experiment on Detroit 562, 0.253 nM and 0.25 nM and 0.189 nM and 0.195 nM.
“CDX3379-MMAE: anti-HER3 antibody CDX3379 with 4 MMAE per antibody via MC-VC-PABC linker, labeled with Cy5”: in the experiment on B16 cells, the “cell surface binding to B16 cells” value was “dose response cell surface binding”. The “Survival curve, status” value with B16 tumors (CDX3379-MMAE + IR + αPD1) is 0; in the experiment with B16 tumors (CDX3379-MMAE + IR), 0 and 1. In addition, the tumor growth result in the experiment on MOC2 tumors was “modest tumor growth delay”.
